# Assay results taken from patent US8361962B2, “Tricyclic inhibitors of JAK” (Roche Palo Alto LLC, priority 2009, dated 2013).
# Target: T1, h-jak3 (JAK3: Recombinant human kinase domain) (Homo sapiens, UniProt P52333)
# T1 construct: JAK3: Recombinant human kinase domain from Millipore (Cat # 14-629); purchased Millipore 14-629
# Assay: Determination of IC50 of Janus Kinase (JAK) inhibition, radioactive end-point 33P-ATP assay, JAK3
# Type: biochemical
# From the text: Determination of IC50 of Janus Kinase (JAK) Inhibition:
# Enzymes and peptide substrate used are described below: • JAK1: Recombinant human kinase domain from Invitrogen (Cat # PV4774) • JAK3: Recombinant human kinase domain from Millipore (Cat # 14-629) • JAK2: Recombinant human kinase domain from Millipore (Cat # 14-640) • Substrate: N-terminally biotinylated 14-mer peptide derived from activation loop of JAK1 with sequence of the peptide substrate: Biotin-KAIETDKEYYTVKD (SEQ ID NO: 1)
# Assay conditions used are described below: • Assay Buffer: JAK Kinase Buffer: 50 mM Hepes [pH 7.2], 10 mM MgCl2, 1 mM DTT, 1 mg/ml BSA. The assay is carried out in this buffer. • Assay Format: The kinase activity of all three JAK kinases is measured using a radioactive, end-point assay and with trace amounts of ^33P-ATP. The assays are carried out in 96-well polypropylene plates. Experimental Method:
# All concentrations are final in the reaction mixture and all incubations are carried at room temperature. Assay steps are described below: • Compounds are serially diluted in 100% DMSO typically at a 10× starting concentration of 1 mM. Final concentration of DMSO in the reaction is 10%. • Compounds are preincubated with enzyme (0.5 nM JAK3, 1 nM JAK2, 5 nM JAK1) for 10 minutes. • Reactions are initiated by the addition of a cocktail of the two substrates (ATP and peptide premixed in the JAK Kinase Buffer). In the JAK2/JAK3 assays, ATP and the peptide are used at concentrations of 1.5 uM and 50 uM, respectively. JAK1 assay is carried out at an ATP concentration of 10 uM and a peptide concentration of 50 uM. The duration of the assay for JAK2 and JAK3 is 20 minutes. JAK1 assay is carried out for 40 minutes. With all three enzymes, reactions are terminated by the addition of 0.5M EDTA to a final concentration of 100 mM. • 25 ul of terminated reactions are transferred to 150 ul of a 7.5% (v/v) slurry of streptavidin-coated sepharose beads in MgCl2- and CaCl2-free 1× Phosphate Buffered Saline containing 50 mM of EDTA in 96-well, 1.2 um MultiScreen-BV filter plates. After a 30-minute incubation, the beads are washed under vacuum with the following buffers: • 3 to 4 washes with 200 ul of 2M NaCl. • 3 to 4 washes with 200 ul of 2M NaCl plus 1% (v/v) phosphoric acid. • 1 wash with water. • Washed plates are dried in a 60° C. oven for between 1 to 2 hours. • 70 ul of Microscint 20 scintillation fluid is added to each well of filter plates and after at least 30 minutes of incubation, radioactive counts are measured in a Perkin Elmer microplate scintillation counter.
# T1 sequence (P52333 822-1111 limits assumed): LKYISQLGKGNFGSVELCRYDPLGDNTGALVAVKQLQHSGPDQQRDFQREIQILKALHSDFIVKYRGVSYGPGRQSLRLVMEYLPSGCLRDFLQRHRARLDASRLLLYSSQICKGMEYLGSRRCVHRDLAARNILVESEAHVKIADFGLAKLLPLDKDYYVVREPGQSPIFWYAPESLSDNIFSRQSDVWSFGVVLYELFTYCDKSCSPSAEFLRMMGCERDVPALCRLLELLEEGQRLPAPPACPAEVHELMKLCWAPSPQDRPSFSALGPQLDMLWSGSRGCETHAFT
Compound,IC50 [µM],Ki [µM]
"C[C@H]1CCCC[C@H]1c1nnc2cnc3[nH]ccc3n12 [Compound I-6, 1-((1R,2S)-2-Methyl-cyclohexyl)-6H-2,3,5,6,8b-pentaaza-as-indacene]",0.0693,0.0355
"c1cc2c(ncc3ccc(C4CCCCC4)n32)[nH]1 [Compound I-2, 8-Cyclohexyl-3H-3,4,8a-triaza-as-indacene]",0.0202,0.0104
"CC1CCCCN1c1ccc2cnc3[nH]ccc3n12 (centres unmarked) [Compound I-3, 8-(2-Methyl-piperidin-1-yl)-3H-3,4,8a-triaza-as-indacene]",0.0399,0.0205
"CCS(=O)(=O)N1CCC(C)[C@H](c2ccc3cnc4[nH]ccc4n23)C1 (stereo in doubt) [Compound I-5, 8-((3S,4S)-1-Ethanesulfonyl-4-methyl-piperidin-3-yl)-3H-3,4,8a-triaza-as-indacene]",0.203,0.119
"CCS(=O)(=O)N1CC[C@H](C)[C@H](c2ccc3cnc4[nH]ccc4n23)C1 [Compound I-4, 8-((3S,4S)-1-Ethanesulfonyl-4-methyl-piperidin-3-yl)-3H-3,4,8a-triaza-as-indacene]",,0.000964

# Further lines, results first:
IC50 [µM],Ki [µM],Compound
0.093,0.0477,"c1cc2c(ncc3cnc(C4CCCCC4)n32)[nH]1 [Compound I-10, 1-Cyclohexyl-6H-2,5,6,8b-tetraaza-as-indacene]"
0.231,0.103,"CCS(=O)(=O)N1CC[C@@H](C)[C@@H](c2nnc3cnc4[nH]ccc4n23)C1 [Compound I-7, 1-((3R,4R)-1-Ethanesulfonyl-4-methyl-piperidin-3-yl)-6H-2,3,5,6,8b-pentaaza-as-indacene]"
0.449,0.225,"c1cc2c(ncc3nnc(C4CCCCC4)n32)[nH]1 [Compound I-8, 1-Cyclohexyl-6H-2,3,5,6,8b-pentaaza-as-indacene]"
0.025,0.0128,"C[C@H]1CCN(C(=O)CC#N)C[C@H]1c1nnc2cnc3[nH]ccc3n12 [Compound I-9, 3-[(3S,4S)-4-Methyl-3-(6H-2,3,5,6,8b-pentaaza-as-indacen-1-yl)-piperidin-1-yl]-3-oxo-propionitrile]"
